# From article PMC5748433, “Study on the effect of EMD386088, a 5-HT6 receptor partial agonist, in enhancing the anti-immobility action of some antidepressants in rats” (Naunyn-Schmiedeberg's Archives of Pharmacology, 2017)
# Like-named read-outs stand apart in the source and are kept apart here.
# How the values were obtained:
# GABAA = test system: GABAA; parameters: method as in Jastrzębska-Więsek et al. [2013]; details: ref Jastrzębska-Więsek et al. [2013]; cited from earlier work
# [1] = Pharmacokinetic study in rats, plasma (LC/MS/MS, non-compartmental); format: in vivo, rat; details: for Vd/F / AUC(0-t) / CL/F / Cmax / MRT / half-life / Tmax: rat, plasma
# Procedure: Blood samples were collected at 0 min (predose), 5 min, 15 min, 30 min, 60 min, 120 min, and 240 min after injections. The blood was collected from right ventricle under anesthesia using a mixture of ketamine (50 mg/kg)/xylasine (8 mg/kg) in the ratio of 3:1, and 0.025 mL of a mixture for 10 g body weight was injected i.p. 10 min before planned blood collection. Blood and brain samples were collected under general anesthesia induced by i.p. injections of ketamine (50 mg/kg)/xylasine (8 mg/kg). The blood samples were taken into heparinized tubes, immediately centrifuged at 3500 rpm for 10 min, and plasma was collected. After the blood was drawn, the rat’s spinal cord was cut and the cerebral tissue was removed, and after dissection washed in PBS saline. The brain and plasma samples were immediately frozen at − 80 °C for LC/MS/MS analysis.
# Pharmacokinetic parameters were calculated by a non-compartmental approach from the average concentration values, using Phoenix WinNonlin software (Certara, Princeton, NJ 08540 USA). First order elimination rate constant (λz) was calculated by linear regression of time versus log concentration.
# The quantification of studied compounds in plasma and brain samples was done using HPLC Agilent 1100 system (Agilent Technologies, Waldbronn, Germany) coupled to the triple quadrupole mass spectrometer API 2000 (ABSciex, Framingham, Massachusetts, USA) equipped with an electrospray ion source. After preparation, the samples were injected (20 μL) onto XBridge C18 (2.1 mm × 30 mm, 3.5 μm, Waters, Milford, Massachusetts, USA) analytical column. The mobile phase consisted of ACN with 0.1% formic acid (A) and water with 0.1% formic acid (B) were delivered in gradient elution started with 90% of eluent B, increasing during 2 min to 90% of eluent A, maintained to 3 min, and then returned during 5 min to 90% of eluent B, and maintained 90% of eluent B during 5 min at a flow rate of 300 μL/min. The total time of analysis was 15 min. Electrospray ionization process was performed in positive ionization and the data acquisition was carried out in multiple reaction monitoring mode (MRM) for EMD386088 and its internal standard (nebivolol). The ion spray source settings were as follows: spray voltage: 5 kV, heater temperature: 350 °C, curtain gas: 15 psi, source gas 1: 35 psi, source gas 2: 10 psi. The ions measured were m/z 247.3 (Q1) and m/z 168.2 (Q3) for EMD386088, and m/z 406.2 (Q1) and m/z 151.1 (Q3) for IS.
# A sample volume of 50 μL of plasma or brain homogenate was transferred into the clean Eppendorf tube and spiked with 5 μL of IS solution (1 μg/mL) obtaining the final concentration of 100 ng/mL. After 5 min of mixing (1500 rpm), proteins were precipitated using 150 μL ACN. After 10 min of samples shaking (1500 rpm), the incubation step was performed (10 min, 4 °C). Next, samples were centrifuged (10,000 rpm, 10 min, 4 °C) and the supernatant was transferred into chromatographic vial for LC/MS/MS analysis. The brain homogenate was prepared maintaining the tissue: phosphate-buffered saline (PBS) at a ratio of 1:5. The homogenization was carried out employing IKA® T10 Basic ULTRA-TURRAX disperser (IKA Werke GmbH & Co. KG, Staufen, Germany). After homogenization, 50 μL of sample was collected for further preparation. All samples were stored on ice during the preparation process.
# α2-adrenoceptors = test system: α2-adrenoceptors; parameters: method as in Jastrzębska-Więsek et al. [2013]; details: ref Jastrzębska-Więsek et al. [2013]; cited from earlier work
# opioid μ receptors = test system: opioid μ receptors; parameters: method as in Jastrzębska-Więsek et al. [2013]; details: ref Jastrzębska-Więsek et al. [2013]; cited from earlier work
# [2] = test system: dopamine transporter (DAT); parameters: method as in Jastrzębska-Więsek et al. [2016]; details: functional in vitro study; ref Jastrzębska-Więsek et al. [2016]; cited from earlier work
# dopamine D2 = test system: dopamine D2; parameters: method as in Jastrzębska-Więsek et al. [2013]; details: ref Jastrzębska-Więsek et al. [2013]; cited from earlier work
# β1-adrenoceptors = test system: β1-adrenoceptors; parameters: method as in Jastrzębska-Więsek et al. [2013]; details: ref Jastrzębska-Więsek et al. [2013]; cited from earlier work
# 5-HT6 receptor = details: cited from earlier work
# [3] = ip, 2.5 mg/kg, rat plasma, EMD386088 2.5 mg/kg i.p. alone
# [4] = ip, 2.5 mg/kg, rat plasma, EMD386088 2.5 mg/kg i.p. jointly with imipramine (IMI) 15 mg/kg i.p.
# [5] = ip, 5 mg/kg, rat plasma, EMD386088 5 mg/kg i.p. alone
# [6] = rats, EMD386088 with imipramine vs alone
compound,measurement,setting,value
"Cc1[nH]c2ccc(Cl)cc2c1C1=CCNCC1.Cl [EMD386088, 5-chloro-2-methyl-3-(1,2,3,6-tetrahydro-4-pyridinyl)-1H-indole hydrochloride]",affinity for GABAA,GABAA,no affinity
same,Vd/F,"[1]; intraperitoneal, rats, EMD386088 2.5 mg/kg coadministered with imipramine 15 mg/kg, read-out: volume of distribution V d/F",32.2 L/kg
same,AUC(0-t),[1]; [3],36.8 ng·h/mL
same,CL/F,[1]; [3],1050 mL/min/kg
same,Cmax,[1]; [3],22.9 ng/mL
same,MRT,[1]; [3],1.31 h
same,Vd/F,"[1]; ip, 2.5 mg/kg, rat plasma, EMD386088 2.5 mg/kg i.p. alone, read-out: V d/F",102 L/kg
same,half-life,"[1]; ip, 2.5 mg/kg, rat plasma, EMD386088 2.5 mg/kg i.p. alone, read-out: t1/2",1.12 h
same,Tmax,"[1]; ip, 2.5 mg/kg, rat plasma, EMD386088 2.5 mg/kg i.p. alone, read-out: t max (converted)",0.0833 h
same,AUC(0-t),[1]; [4],125 ng·h/mL
same,CL/F,[1]; [4],289 mL/min/kg
same,Cmax,[1]; [4],49 ng/mL
same,MRT,[1]; [4],1.55 h
same,Vd/F,"[1]; ip, 2.5 mg/kg, rat plasma, EMD386088 2.5 mg/kg i.p. jointly with imipramine (IMI) 15 mg/kg i.p., read-out: V d/F",32.2 L/kg
same,half-life,"[1]; ip, 2.5 mg/kg, rat plasma, EMD386088 2.5 mg/kg i.p. jointly with imipramine (IMI) 15 mg/kg i.p., read-out: t1/2",1.28 h
same,Tmax,"[1]; ip, 2.5 mg/kg, rat plasma, EMD386088 2.5 mg/kg i.p. jointly with imipramine (IMI) 15 mg/kg i.p., read-out: t max (converted)",1 h
same,AUC(0-t),[1]; [5],75.5 ng·h/mL
same,CL/F,[1]; [5],1040 mL/min/kg
same,Cmax,[1]; [5],45.2 ng/mL
same,MRT,[1]; [5],1.3 h
same,Vd/F,"[1]; ip, 5 mg/kg, rat plasma, EMD386088 5 mg/kg i.p. alone, read-out: V d/F",97.1 L/kg
same,half-life,"[1]; ip, 5 mg/kg, rat plasma, EMD386088 5 mg/kg i.p. alone, read-out: t1/2",1.08 h
same,Tmax,"[1]; ip, 5 mg/kg, rat plasma, EMD386088 5 mg/kg i.p. alone, read-out: t max (converted)",0.0833 h
same,half-life,"[1]; ip, 5 mg/kg, rats, EMD386088 alone (2.5 and 5 mg/kg) i.p., read-out: t 1/2 (terminal half-life)",1.12 h
same,Tmax,"[1]; ip, 5 mg/kg, rats, EMD386088 alone (2.5 and 5 mg/kg) i.p., read-out: t max (time to maximum concentration in the blood) (converted)",0.0833 h
same,Vd/F,"[1]; ip, rats, EMD386088 alone i.p., read-out: volume of distribution V d/F",102 L/kg
same,change of area under the concentration-time curve (AUC) on coadministration with imipramine,[1]; [6],increased three times
same,change of volume of distribution on coadministration with imipramine,[1]; [6],decreased three times
same,affinity for α2-adrenoceptors,α2-adrenoceptors,no affinity
same,affinity for opioid μ receptors,opioid μ receptors,no affinity
same,affinity for dopamine transporter (DAT),[2],significant affinity
same,affinity for dopamine D2,dopamine D2,no affinity
same,affinity for β1-adrenoceptors,β1-adrenoceptors,no affinity
same,5-HT6 receptor functional profile,"5-HT6 receptor; in vitro, ref Jastrzębska-Więsek et al. [2013]",potent 5-HT6 receptor partial agonist
same,EC50,"5-HT6 receptor; read-out: EC50 5-HT6 receptor agonist, ref Mattsson et al. ([2005])",1 nM
